The source of these data is patent publication US20200054594A1 (priority 2017, published 2020).

SMILES strings stand for the structures.

One data set has as its system incision pain in rats. Nature of the data set: Incision pain test in rats, mechanical pain threshold by Electronic Von Frey. The data set is classed as in vivo, male Wistar rats.
The test system of a further data set is rats. Nature of the data set: Toxic effects / adverse reactions observed during the rat incision pain study. As to conditions: single agents, i.v. Format: in vivo, male Wistar rats. As for the experimental part:
The rats were randomly divided into the following groups according to the body weight: blank control group (n=8), model group (n=8) and drug-administered group (n=48). The drug-administered group was divided into the following groups: compound 19-0.1 mg/kg group (n=8), compound 19-0.3 mg/kg group (n=8), compound 19-0.03 mg/kg+compound 35-0.1 mg/kg group (n=8), compound 19-0.03 mg/kg+compound 35-0.3 mg/kg group (n=8), compound 19-0.1 mg/kg+compound 35-0.1 mg/kg group (n=8), and compound 19-0.1 mg/kg+compound 35-0.3 mg/kg group (n=8). The model group and drug-administered group were subjected to an incision surgery. During the surgery, the rats were anesthetized with isoflurane. An incision (1 cm long) passing through the skin and fascia was made with a No. 10 surgical blade in the middle of the left hind paw. The skin was sutured with a 3-0 sterile silk surgical suture. The injured site was disinfected with antibiotic ointment and iodophor. The animals were returned to their original place to recover overnight. After 24 hours, the drug was injected through the tail vein, and the blank control group and the model group were administrated with the corresponding solvents. […] The mechanical pain threshold of each group was measured by the Electronic Von Frey 30 minutes after the injection to evaluate the analgesic effect of the drug on the surgical incision pain and the intensity thereof.

In the case of `CNC(=O)NC1CCN(C(=O)[C@@H](CCCCN)NC(=O)[C@@H](CC(C)C)NC(=O)[C@@H](Cc2ccccc2)NC(=O)[C@H](N)Cc2ccccc2)CC1` [compound 35, (R)—N—((R)-6-Amino-1-(4-(3-methylureido)piperidin-1-yl)-1-oxohexan-2-yl)-2-((R)-2-((R)-2-amino-3-phenylpropanamido)-3-phenylpropanamido)-4-methylpentanamide], in the data set on incision pain in rats (rat, in vivo, iv, 0.3 mg/kg), the “increase of tenderness threshold compared with the model group” value stood at 102.3% and the tenderness threshold is 22.42 g.
For the compound `CCO[C@H]1CC[C@H](NCC[C@@]2(c3ccccn3)CCOC3(CCCC3)C2)c2ccccc21` [compound 19, (1S,4S)-4-Ethoxy-N-(2-((R)-9-(pyridin-2-yl)-6-oxaspiro[4.5]decan-9-yl)ethyl)-1,2,3,4-tetrahydronaphthalen-1-amine], the “increase of tenderness threshold compared with the model group” value in the data set with incision pain in rats (compound 19 0.1 mg/kg i.v. alone, 30 minutes after administration) is 233.8%. Besides, in the data set with incision pain in rats (compound 19 0.1 mg/kg i.v. alone, 30 minutes after administration, model group 11.08 g, blank control 37.68 g), the tenderness threshold was 36.99 g. Further, the “toxic effects (such as slow movement and stiffness of limbs in rats), compound 19 alone versus compound 35 alone” value with rats is “more obvious toxic effects”.
